The source of these data is patent US8106055B2, “Substituted amide compounds” (Gruenenthal GmbH, priority 2007, dated 2012).

In this assay the target is T1, human bradykinin 1 receptor (B1R) (Homo sapiens, UniProt P46663).
T1 construct: expressed in transfected cells; host or cells: CHO K1 cells
T1 sequence (P46663 1-353): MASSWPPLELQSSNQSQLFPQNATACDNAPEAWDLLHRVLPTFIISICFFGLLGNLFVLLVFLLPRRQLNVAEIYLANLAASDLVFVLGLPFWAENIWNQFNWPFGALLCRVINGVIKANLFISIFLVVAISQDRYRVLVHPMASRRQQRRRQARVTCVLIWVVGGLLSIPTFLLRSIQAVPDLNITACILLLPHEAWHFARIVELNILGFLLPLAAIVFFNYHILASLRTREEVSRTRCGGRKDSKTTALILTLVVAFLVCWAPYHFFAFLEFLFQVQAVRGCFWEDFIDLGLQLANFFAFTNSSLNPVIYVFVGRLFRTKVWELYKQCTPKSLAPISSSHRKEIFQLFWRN
Nature of the assay: Functional investigation on the human bradykinin 1 receptor (B1R), Ca2+ FLIPR assay in CHO K1 hB1R cells. The format is cell-based. The conditions noted are these: B1R antagonism human; test substance 10 μM; Ca2+ FLIPR, CHO K1 hB1R cells. In outline: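 Cells were dye-loaded with Fluo-4 plus probenecid, then test substances added and Ca2+ influx compared with agonist control for % activation. After 10-20 min, EC80 agonist (Lys-Des-Arg9-bradykinin human; Des-Arg9-bradykinin rat) was applied; suppression gave % inhibition and IC50 values.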

SMILES strings stand for the structures.

Turning to `COc1ccc(S(=O)(=O)N2CCCCC2COCC(=O)NC2CCC(C(c3ccc(F)cc3)N(C)C)CC2)cc1` (centres unmarked) [Example 450], the “B1R Ant. h [10 μM] % Inhibition” value came to 40%. As for `CN(C)C(CCc1ccccc1)C1CCC(CNC(=O)COC2CCCCC2N(C)S(=O)(=O)c2ccc(Cl)c(Cl)c2)CC1` (centres unmarked) [Example 451], the figure is 87%; as for `Cc1ccc(S(=O)(=O)N(C)CCOCC(=O)NCC2CCC(C(CCc3ccccc3)N(C)C)CC2)cc1` (centres unmarked) [Example 452], 37%; as for `COc1cc(C)c(S(=O)(=O)N2CCC(OCC(=O)NC3CCC(C(c4ccc(F)cc4)N(C)C)CC3)CC2)c(C)c1C` (centres unmarked) [Example 454], 45%.

As to `CN(C)C(c1ccc(F)cc1)C1CCC(CCNC(=O)COC2CCN(S(=O)(=O)c3ccc(Cl)cc3Cl)C2)CC1` (centres unmarked) [Example 456], the “B1R Ant. h [10 μM] % Inhibition” value came to 80%. For `Cc1ccc(S(=O)(=O)N(C)CCOCC(=O)NCCC2CCC(C(c3ccc(F)cc3)N(C)C)CC2)cc1` (centres unmarked) [Example 457], the “B1R Ant. h [10 μM] % Inhibition” value is given as 14%.

In the case of `COc1cc(C)c(S(=O)(=O)N(C)CCOCC(=O)NCC2CCC(C(c3ccc(F)cc3)N(C)C)CC2)c(C)c1` (centres unmarked) [Example 458], the “B1R Ant. h [10 μM] % Inhibition” value worked out at 103%.

As for `CN(C)C(c1ccc(Cl)cc1)C1CCC(CNC(=O)COCCN(C)S(=O)(=O)c2ccc(Cl)cc2Cl)CC1` (centres unmarked) [Example 459], the “B1R Ant. h [10 μM] % Inhibition” value is on record as 29%.

For the compound `COc1ccc(S(=O)(=O)N(C)CCOCC(=O)NCCC2CCC(C(c3ccc(Cl)cc3)N(C)C)CC2)cc1` (centres unmarked) [Example 460], the “B1R Ant. h [10 μM] % Inhibition” value amounted to 50%.

Consider `COc1ccc(S(=O)(=O)N2CCCC2COCC(=O)NC2CCC(C(c3ccc(F)cc3)N(C)C)CC2)cc1` (centres unmarked) [Example 461], for which the “B1R Ant. h [10 μM] % Inhibition” value was 13%. As to `COc1ccc(S(=O)(=O)N2CCCCC2COCC(=O)NCCC2CCC(C(c3ccc(F)cc3)N(C)C)CC2)cc1OC` (centres unmarked) [Example 462], the “B1R Ant. h [10 μM] % Inhibition” value is listed as −8%. As for `CN(C)C(c1ccc(F)cc1)C1CCC(NC(=O)COC2CCN(S(=O)(=O)c3ccccc3)C2)CC1` (centres unmarked) [Example 463], the figure is −7%; as for `CN(C)C(c1ccc(F)cc1)C1CCC(CCNC(=O)COC2CCN(S(=O)(=O)c3ccc(Cl)cc3)C2)CC1` (centres unmarked) [Example 464], −2%. As for `CN(C)C(c1ccc(F)cc1)C1CCC(CCNC(=O)COC2CCN(S(=O)(=O)c3cccc(C(F)(F)F)c3)C2)CC1` (centres unmarked) [Example 466], the figure is 7%; as for `COc1cc(C)c(S(=O)(=O)N2CCC(OCC(=O)NCCC3CCC(C(c4ccc(F)cc4)N(C)C)CC3)C2)c(C)c1C` (centres unmarked) [Example 467], 67%. As for `COc1cc(C)c(S(=O)(=O)N2CCCC(OCC(=O)NCCC3CCC(C(c4ccc(F)cc4)N(C)C)CC3)C2)c(C)c1C` (centres unmarked) [Example 468], the figure is 50%; as for `COc1ccc(S(=O)(=O)N2CCCCC2COCC(=O)NCC2CCC(C(CCc3ccccc3)N(C)C)CC2)cc1` (centres unmarked) [Example 469], 91%; as for `CN(C)C(c1ccc(F)cc1)C1CCC(CCNC(=O)COCCC2CCN(S(=O)(=O)c3ccccc3)CC2)CC1` (centres unmarked) [Example 470], 4%. Consider `CN(C)C(c1ccc(Cl)cc1)C1CCC(CNC(=O)COC2CCN(S(=O)(=O)c3ccccc3)CC2)CC1` (centres unmarked) [Example 471], for which the “B1R Ant. h [10 μM] % Inhibition” value came to 7%. For `COc1cc(C)c(S(=O)(=O)N2CCC(OCC(=O)NCCC3CCC(C(c4ccc(Cl)cc4)N(C)C)CC3)CC2)c(C)c1C` (centres unmarked) [Example 472] the value was 1%. For the compound `COc1cc(C)c(S(=O)(=O)N(CCOCC(=O)NCC2CCC(C(c3ccc(Cl)cc3)N(C)C)CC2)Cc2ccccc2)c(C)c1` (centres unmarked) [Example 473], the “B1R Ant. h [10 μM] % Inhibition” value turned out to be 52%.

As for `COc1ccc(S(=O)(=O)N2CCCCC2COCC(=O)NCCC2CCC(C(c3ccc(Cl)cc3)N(C)C)CC2)c(OC)c1` (centres unmarked) [Example 474], the “B1R Ant. h [10 μM] % Inhibition” value turned out to be 17%. As for `Cc1cc(C)c(S(=O)(=O)N2CCC(OCC(=O)NCC3CCC(C(CCc4ccccc4)N(C)C)CC3)C2)c(C)c1` (centres unmarked) [Example 475], the figure is 103%; as for `CN(C)C(c1cccc(F)c1)C1CCC(CNC(=O)COC2CCN(S(=O)(=O)c3ccccc3)CC2)CC1` (centres unmarked) [Example 477], −16%.

As to `CN(C)C(c1ccc(F)cc1)C1CCC(NC(=O)COCC2CCCN(S(=O)(=O)c3ccccc3)C2)CC1` (centres unmarked) [Example 478], the “B1R Ant. h [10 μM] % Inhibition” value was −3%. As for `CN(C)C(c1ccc(F)cc1)C1CCC(CCNC(=O)COCC2CCCN(S(=O)(=O)c3ccccc3)C2)CC1` (centres unmarked) [Example 479], the figure is 18%; as for `COc1cc(C)c(S(=O)(=O)N2CCC(OCC(=O)NCCC3CCC(C(c4ccc(F)cc4)N(C)C)CC3)CC2)c(C)c1C` (centres unmarked) [Example 480], 23%; as for `COc1cc(C)c(S(=O)(=O)N2CCC(CCOCC(=O)NCC3CCC(C(c4ccc(F)cc4)N(C)C)CC3)CC2)c(C)c1C` (centres unmarked) [Example 481], 9%. Regarding `COc1ccc(S(=O)(=O)N(C)CCOCC(=O)NCCC2CCC(C(c3ccc(F)cc3)N(C)C)CC2)cc1OC` (centres unmarked) [Example 484], the “B1R Ant. h [10 μM] % Inhibition” value is −21%. Consider `COc1cc(C)c(S(=O)(=O)N2CCCC(OCC(=O)NCCC3CCC(C(c4ccc(Cl)cc4)N(C)C)CC3)C2)c(C)c1C` (centres unmarked) [Example 485], for which the “B1R Ant. h [10 μM] % Inhibition” value came to 5%. For `CN(C)C(c1ccc(F)cc1)C1CCC(CCNC(=O)COCCN(C)S(=O)(=O)c2ccc(F)cc2)CC1` (centres unmarked) [Example 487] the value was 9%; for `CN(C)C(c1ccc(F)cc1)C1CCC(CNC(=O)COC2CCCN(S(=O)(=O)c3ccccc3)C2)CC1` (centres unmarked) [Example 488], 4%. For `CN(C)C(c1ccc(F)cc1)C1CCC(CCNC(=O)COCCN(Cc2ccccc2)S(=O)(=O)c2ccccc2)CC1` (centres unmarked) [Example 489] the value was 34%; for `Cc1cc(C)c(S(=O)(=O)N(C)CCOCC(=O)NC2CCC(C(c3ccc(F)cc3)N(C)C)CC2)c(C)c1` (centres unmarked) [Example 490], 45%. For `Cc1ccc(S(=O)(=O)N2CCC(OCC(=O)NCCC3CCC(C(c4ccc(F)cc4)N(C)C)CC3)C2)cc1` (centres unmarked) [Example 491] the value was 5%; for `COc1cc(C)c(S(=O)(=O)N2CCC(OCC(=O)NCCC3CCC(C(c4ccc(Cl)cc4)N(C)C)CC3)C2)c(C)c1` (centres unmarked) [Example 492], 105%; for `CN(C)C(c1ccc(F)cc1)C1CCC(CCNC(=O)COCCN2CCN(S(=O)(=O)c3ccccc3)CC2)CC1` (centres unmarked) [Example 493], −13%. `COc1cc(C)c(S(=O)(=O)N(CCOCC(=O)NCC2CCC(C(c3ccc(F)cc3)N(C)C)CC2)Cc2ccccc2)c(C)c1` (centres unmarked) [Example 494]: the “B1R Ant. h [10 μM] % Inhibition” value was 86%.

As for `CN(C)C(CCc1ccccc1)C1CCC(CNC(=O)COC2CCN(S(=O)(=O)c3ccc(Cl)cc3Cl)C2)CC1` (centres unmarked) [Example 496], the “B1R Ant. h [10 μM] % Inhibition” value is given as 98%. For `COc1ccc(S(=O)(=O)N2CCC(OCC(=O)NCC3CCC(C(c4ccc(F)cc4)N(C)C)CC3)C2)cc1OC` (centres unmarked) [Example 497] the value was −4%; for `COc1cc(C)c(S(=O)(=O)N2CCC(OCC(=O)NCC3CCC(C(c4ccc(Cl)cc4)N(C)C)CC3)CC2)c(C)c1C` (centres unmarked) [Example 498], 17%.
